Test results taken from US8609661B2, “Pyrimido-pyrrolo-quinoxalinedione inhibitors of cystic fibrosis transmembrane conductance regulator protein and uses therefor” (The Regents of the University of California, priority 2009, dated 2013).
Like-named read-outs stand apart in the source and are kept apart here.

Target: T1, human wildtype CFTR (Homo sapiens, UniProt P13569)
T1 construct: expressed in transfected cells; host or cells: Fischer rat thyroid (FRT) cells
Assay: Fluorescence platereader assay of CFTR-mediated iodide influx (YFP quenching) in FRT cells
Assay type: cell-based
Conditions: for inhibition at 5 µM / inhibition at 25 µM: FRT; for IC50: apparent IC50 from concentration-inhibition data, fluorescence platereader assay
Description: A. Cell lines and compounds—Fischer rat thyroid (FRT) cells co-expressing human wildtype CFTR and the halide indicator YFP-H148Q/1152L were generated as described (see, e.g., Ma et al., J. Clin. Invest. 110:1651-1658 (2002)). Cells were plated in 96-well black-walled microplates (Corning Costar) at a density of 20,000 cells per well in Coon's modified F12 medium supplemented with 5% fetal calf serum, 2 mM L-glutamine, 100 U/mL penicillin, and 100 μg/ml streptomycin. Assays were performed at 48 h after plating the cells when the cells were just confluent. For some experiments, measurements were made using T84 human intestinal epithelial cells and for other experiments, measurements were obtained using primary cultures of human bronchial epithelial cells, which were obtained and grown essentially as previously described (see, e.g., 3 and 27).
B. Compound Screening—Assays were performed using an automated screening platform (Beckman) equipped with FLUOStar fluorescence platereaders (BMG Lab Technologies, Offenburg, Germany) as described (see Ma et al., supra). Each well of a 96-well plate containing FRT cells was washed 3 times in PBS (300 μL/wash), leaving 50 μL PBS. […] After 15 min, 96-well plates were transferred to a plate reader for fluorescence assay. Each well was assayed individually for CFTR-mediated iodide influx by recording fluorescence continuously (200 ms per point) for 2 s (baseline) and then for 10 s after rapid addition of 160 μL of isosmolar PBS in which 137 mM chloride was replaced by iodide. The initial rate of iodide influx was computed from fluorescence data by non-linear regression.
Collections of synthetic and natural compounds were screened according to the screening procedures described in Example 2. A cell-based fluorescence assay was used in which CFTR inhibitors were identified by reduced iodide influx in FRT cells co-expressing human CFTR and a YFP halide sensor. CFTR was maximally activated by a mixture of agonists having different activating mechanisms. Inhibition of iodide influx was observed as reduced YFP fluorescence quenching in response to rapid iodide addition to each well of 96-well plates. […]

[1] = Table 2, screening, 5 μM, read-out: % Inhibition at 5 μM
[2] = Table 2, screening, 25 μM, read-out: % Inhibition at 25 μM
[3] = read-out: % inhibition at 25/5 μM (5 μM value), Table 1, 5 μM compound
[4] = read-out: % inhibition at 25/5 μM (25 μM value), Table 1, 25 μM compound

T1 sequence (P13569 whole entry): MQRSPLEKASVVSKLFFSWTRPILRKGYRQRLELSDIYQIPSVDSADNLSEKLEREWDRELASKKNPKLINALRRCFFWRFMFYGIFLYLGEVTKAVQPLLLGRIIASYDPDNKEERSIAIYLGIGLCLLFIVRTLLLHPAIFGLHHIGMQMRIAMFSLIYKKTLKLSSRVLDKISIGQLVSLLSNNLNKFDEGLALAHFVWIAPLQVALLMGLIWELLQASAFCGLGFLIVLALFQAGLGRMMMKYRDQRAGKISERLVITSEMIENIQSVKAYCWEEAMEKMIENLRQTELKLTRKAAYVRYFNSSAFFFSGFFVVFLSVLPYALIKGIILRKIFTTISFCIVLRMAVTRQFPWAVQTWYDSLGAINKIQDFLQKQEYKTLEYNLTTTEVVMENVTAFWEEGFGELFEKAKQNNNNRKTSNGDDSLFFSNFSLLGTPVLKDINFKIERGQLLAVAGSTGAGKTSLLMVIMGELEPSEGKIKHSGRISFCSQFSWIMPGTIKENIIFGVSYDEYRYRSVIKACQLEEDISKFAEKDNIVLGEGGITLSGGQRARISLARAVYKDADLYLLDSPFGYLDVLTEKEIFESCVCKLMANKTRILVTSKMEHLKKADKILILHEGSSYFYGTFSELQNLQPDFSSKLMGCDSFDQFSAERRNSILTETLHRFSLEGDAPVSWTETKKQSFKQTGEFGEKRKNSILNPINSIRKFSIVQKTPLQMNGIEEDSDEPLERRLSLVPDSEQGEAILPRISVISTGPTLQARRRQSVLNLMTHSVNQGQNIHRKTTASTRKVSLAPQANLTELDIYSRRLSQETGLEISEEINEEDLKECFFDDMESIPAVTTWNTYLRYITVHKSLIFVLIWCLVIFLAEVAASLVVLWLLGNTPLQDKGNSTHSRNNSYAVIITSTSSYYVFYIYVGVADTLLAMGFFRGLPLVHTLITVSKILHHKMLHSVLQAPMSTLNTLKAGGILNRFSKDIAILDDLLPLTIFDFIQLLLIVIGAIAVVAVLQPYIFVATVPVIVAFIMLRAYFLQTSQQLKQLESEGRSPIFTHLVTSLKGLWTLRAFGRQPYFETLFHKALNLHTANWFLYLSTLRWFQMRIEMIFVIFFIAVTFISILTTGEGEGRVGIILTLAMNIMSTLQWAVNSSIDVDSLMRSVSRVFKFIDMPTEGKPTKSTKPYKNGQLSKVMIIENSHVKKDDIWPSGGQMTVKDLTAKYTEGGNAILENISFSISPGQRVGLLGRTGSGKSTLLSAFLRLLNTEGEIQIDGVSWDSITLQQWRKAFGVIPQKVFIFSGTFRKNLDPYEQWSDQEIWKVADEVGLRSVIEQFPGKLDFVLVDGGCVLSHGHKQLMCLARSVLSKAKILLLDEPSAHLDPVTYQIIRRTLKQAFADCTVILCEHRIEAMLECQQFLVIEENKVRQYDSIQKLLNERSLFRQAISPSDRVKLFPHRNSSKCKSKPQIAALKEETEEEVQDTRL

Row | SMILES | inhibition at 5 µM [1] | inhibition at 25 µM [2] | inhibition at 5 µM [3] | inhibition at 25 µM [4] | IC50
1 | Cc1cc2c(cc1C)-n1c(-c3ccccc3)c3c(=O)n(C)c(=O)n(C)c3c1C(c1ccc(O)c(O)c1)N2 (centres unmarked) [PPQ-224, 2,3,7,9-Tetramethyl-11-phenyl-6-(3,4-dihydroxyphenyl)-5,6-dihydro-pyrimido[4′,5′-3,4]pyrrolo[1,2-a]quinoxaline-8,10-(7H,9H)-dione] | 24% | 82% |  |  | 
2 | Cn1c(=O)c2c(-c3ccccc3F)n3c(c2n(C)c1=O)C(c1cccc(F)c1)Nc1ccccc1-3 (centres unmarked) [PPQ-230, 7,9-Dimethyl-11-(2-fluorophenyl)-6-(3-fluorophenyl)-5,6-dihydro-pyrimido[4′,5′-3,4]pyrrolo[1,2-a]quinoxaline-8,10-(7H,9H)-dione] | 51% | 87% |  |  | 
3 | Cc1ccc(-c2c3c(=O)n(C)c(=O)n(C)c3c3n2-c2ccccc2NC3c2ccc(C)cc2O)cc1 (centres unmarked) [PPQ-220, 7,9-Dimethyl-11-(4-methylphenyl)-6-(2-hydroxy-4-methylphenyl)-5,6-dihydro-pyrimido[4′,5′-3,4]pyrrolo[1,2-a]quinoxaline-8,10-(7H,9H)-dione] | < 10% | > 95% |  |  | 
4 | Cc1ccccc1-c1c2c(=O)n(C)c(=O)n(C)c2c2n1-c1ccccc1NC2c1ccccc1F (centres unmarked) [PPQ-234, 7,9-Dimethyl-11-(2-methylphenyl)-6-(2-fluorophenyl)-5,6-dihydro-pyrimido[4′,5′-3,4]pyrrolo[1,2-a]quinoxaline-8,10-(7H,9H)-dione] | 53% | 81% |  |  | 
5 | Cc1cccc(-c2c3c(=O)n(C)c(=O)n(C)c3c3n2-c2ccccc2NC3c2cccs2)c1 (centres unmarked) [PPQ-114, 7,9-Dimethyl-11-(3-methylphenyl)-6-(thienyl-2-yl)-5,6-dihydro-pyrimido[4′,5′-3,4]pyrrolo[1,2-a]quinoxaline-8,10-(7H,9H)-dione] | 29% | 79% |  |  | 
6 | Cc1cc2c(cc1C)-n1c(-c3ccccc3)c3c(=O)n(C)c(=O)n(C)c3c1C(c1ccccc1)N2 (centres unmarked) [PPQ-226, 2,3,7,9-Tetramethyl-11-phenyl-6-phenyl-5,6-dihydro-pyrimido[4′,5′-3,4]pyrrolo[1,2-a]quinoxaline-8,10-(7H,9H)-dione] | 61% | 92% |  |  | 
7 | Cc1cccc(-c2c3c(=O)n(C)c(=O)n(C)c3c3n2-c2ccccc2NC3c2cccc(F)c2)c1 (centres unmarked) [PPQ-219, 7,9-Dimethyl-11-(3-methylphenyl)-6-(3-fluorophenyl)-5,6-dihydro-pyrimido[4′,5′-3,4]pyrrolo[1,2-a]quinoxaline-8,10-(7H,9H)-dione] | 53% | 93% | 53% | 93% | 8000 nM
8 | Cc1cccc(-c2c3c(=O)n(C)c(=O)n(C)c3c3n2-c2ccccc2NC3c2ccc(O)cc2)c1 (centres unmarked) [PPQ-209, 7,9-Dimethyl-11-(3-methylphenyl)-6-(4-hydroxyphenyl)-5,6-dihydro-pyrimido[4′,5′-3,4]pyrrolo[1,2-a]quinoxaline-8,10-(7H,9H)-dione] | 71% | 94% | 71% | 94% | 1700 nM
9 | Cc1cc2c(cc1C)-n1c(-c3ccccc3)c3c(=O)n(C)c(=O)n(C)c3c1C(c1ccc(O)cc1)N2 (centres unmarked) [PPQ-203, 2,3,7,9-Tetramethyl-11-phenyl-6-(4-hydroxyphenyl)-5,6-dihydro-pyrimido[4′,5′-3,4]pyrrolo[1,2-a]quinoxaline-8,10-(7H,9H)-dione] | 80% | > 95% | 80% |  | 1500 nM
10 | COc1cccc(C2Nc3ccccc3-n3c(-c4cccc(C)c4)c4c(=O)n(C)c(=O)n(C)c4c32)c1 (centres unmarked) [PPQ-210, 7,9-Dimethyl-11-(3-methylphenyl)-6-(3-methoxyphenyl)-5,6-dihydro-pyrimido[4′,5′-3,4]pyrrolo[1,2-a]quinoxaline-8,10-(7H,9H)-dione] | 73% | > 95% | 73% |  | 1700 nM
11 | COc1ccc(-c2c3c(=O)n(C)c(=O)n(C)c3c3n2-c2ccccc2NC3c2cccc(C)c2)cc1 (centres unmarked) | < 10% | 35% |  |  | 
12 | Cc1ccccc1-c1c2c(=O)n(C)c(=O)n(C)c2c2n1-c1ccccc1NC2c1cccc(O)c1 (centres unmarked) [PPQ-242, 7,9-Dimethyl-11-(2-methylphenyl)-6-(3-hydroxyphenyl)-5,6-dihydro-pyrimido[4′,5′-3,4]pyrrolo[1,2-a]quinoxaline-8,10-(7H,9H)-dione] | 15% | 74% |  |  | 
13 | CCOc1ccccc1C1Nc2ccccc2-n2c(-c3cccc(C)c3)c3c(=O)n(C)c(=O)n(C)c3c21 (centres unmarked) [PPQ-231, 7,9-Dimethyl-11-(3-methylphenyl)-6-(2-ethoxyphenyl)-5,6-dihydro-pyrimido[4′,5′-3,4]pyrrolo[1,2-a]quinoxaline-8,10-(7H,9H)-dione] | < 10% | 87% |  |  | 
14 | Cn1c(=O)c2c(-c3ccccc3)n3c(c2n(C)c1=O)C(c1cccc(O)c1O)Nc1ccccc1-3 (centres unmarked) | < 10% | 38% |  |  | 
15 | Cn1c(=O)c2c(-c3ccccc3)n3c(c2n(C)c1=O)C(c1cccc([N+](=O)[O-])c1)Nc1ccccc1-3 (centres unmarked) [PPQ-202, 7,9-Dimethyl-11-phenyl-6-(3-nitrophenyl)-5,6-dihydro-pyrimido[4′,5′-3,4]pyrrolo[1,2-a]quinoxaline-8,10-(7H,9H)-dione] | 60% | 90% | 60% | 90% | 1200 nM
16 | COc1ccc(-c2c3c(=O)n(C)c(=O)n(C)c3c3n2-c2ccccc2NC3c2ccccc2Cl)cc1 (centres unmarked) | < 10% | 47% |  |  | 
17 | Cc1ccccc1-c1c2c(=O)n(C)c(=O)n(C)c2c2n1-c1ccccc1NC2c1cccc(F)c1F (centres unmarked) [PPQ-221, 7,9-Dimethyl-11-(2-methylphenyl)-6-(2,3-difluorophenyl)-5,6-dihydro-pyrimido[4′,5′-3,4]pyrrolo[1,2-a]quinoxaline-8,10-(7H,9H)-dione] | 50% | > 95% |  |  | 
18 | Cn1c(=O)c2c(-c3ccccc3F)n3c(c2n(C)c1=O)C(c1cccs1)Nc1ccccc1-3 (centres unmarked) [PPQ-116, 7,9-Dimethyl-11-(2-fluorophenyl)-6-(thienyl-2-yl)-5,6-dihydro-pyrimido[4′,5′-3,4]pyrrolo[1,2-a]quinoxaline-8,10-(7H,9H )-dione] | 47% | 76% |  |  | 
19 | COc1ccc(O)c(C2Nc3ccccc3-n3c(-c4cccc(C)c4)c4c(=O)n(C)c(=O)n(C)c4c32)c1 (centres unmarked) [PPQ-246, 7,9-Dimethyl-11-(3-methylphenyl)-6-(2-hydroxy-5-methoxylphenyl)-5,6-dihydro-pyrimido[4′,5′-3,4]pyrrolo[1,2-a]quinoxaline-8,10-(7H,9H)-dione] | < 10% | 50% |  |  | 
20 | Cn1c(=O)c2c(-c3ccccc3)n3c(c2n(C)c1=O)C(c1ccc(O)cc1O)Nc1ccccc1-3 (centres unmarked) | < 10% | 35% |  |  | 
21 | Cn1c(=O)c2c(-c3ccccc3)n3c(c2n(C)c1=O)C(c1cccc(F)c1)Nc1ccccc1-3 (centres unmarked) [PPQ-239, 7,9-Dimethyl-11-phenyl-6-(3-fluorophenyl)-5,6-dihydro-pyrimido[4′,5′-3,4]pyrrolo[1,2-a]quinoxaline-8,10-(7H,9H)-dione] | 45% | 76% |  |  | 
22 | COc1ccc(-c2c3c(=O)n(C)c(=O)n(C)c3c3n2-c2ccccc2NC3c2cccc(F)c2F)cc1 (centres unmarked) [PPQ-252, 7,9-Dimethyl-11-(4-methoxyphenyl)-6-(2,3-difluorophenyl)-5,6-dihydro-pyrimido[4′,5′-3,4]pyrrolo[1,2-a]quinoxaline-8,10-(7H,9H)-dione] | < 10% | 78% |  |  | 
23 | Cc1ccc(C2Nc3cc(C)c(C)cc3-n3c(-c4ccccc4F)c4c(=O)n(C)c(=O)n(C)c4c32)o1 (centres unmarked) [PPQ-105, 2,3,7,9-Tetramethyl-11-(2-fluorophenyl)-6-(5-methylfuran-2-yl)-5,6-dihydro-pyrimido[4′,5′-3,4]pyrrolo[1,2-a]quinoxaline-8,10-(7H,9H)-dione] | 78% | 78% |  |  | 1500 nM
24 | Cc1ccccc1-c1c2c(=O)n(C)c(=O)n(C)c2c2n1-c1ccccc1NC2c1ccc(O)cc1 (centres unmarked) [PPQ-222, 7,9-Dimethyl-11-(2-methylphenyl)-6-(4-hydroxyphenyl)-5,6-dihydro-pyrimido[4′,5′-3,4]pyrrolo[1,2-a]quinoxaline-8,10-(7H,9H)-dione] | 32% | 84% |  |  | 
